The experiment deals with nude mice, HT29 intrarenal xenograft, tumor weight T/C. Put plainly: NCI In Vivo Anticancer Drug Screen. Data for tumor model HT29;CX-1 Human Adenocarcinoma (MER+) (intrarenal inoculation) in NU/NU Swiss (nude) mice. The settings on record: endpoint: mean tumor weight change, higher = larger tumour. The gist of the method:
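Readout: treated/vehicle-control ratio of the measured endpoint (tumor size or survival) in transplanted-tumor mice.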

Where [1] appears, read: dose: 150.0 mg/kg/injection, schedule: Q04DX004 (sc), vehicle: suspension in saline.
The mark [2] stands for this setting: dose: 300.0 mg/kg/injection, schedule: Q04DX004 (sc), vehicle: suspension in saline.
The mark [3] stands for this setting: dose: 600.0 mg/kg/injection, schedule: Q04DX004 (sc), vehicle: suspension in saline.
The mark [4] stands for this setting: dose: 150.0 mg/kg/injection, schedule: Q04DX004 (sc), vehicle: saline with Tween-80.
The mark [5] stands for this setting: dose: 300.0 mg/kg/injection, schedule: Q04DX004 (sc), vehicle: saline with Tween-80.
The mark [6] stands for this setting: dose: 1200.0 mg/kg/injection, schedule: Q04DX004 (sc), vehicle: suspension in saline.
Setting [7] is: dose: 100.0 mg/kg/injection, schedule: Q01DX010 (sc), vehicle: saline.
Where [8] appears, read: dose: 200.0 mg/kg/injection, schedule: Q01DX010 (sc), vehicle: saline with Tween-80.

Where “and” joins values, the source holds several entries; their conditions need not be identical. Equal values may be shown once. Records with an inconclusive call do not appear.

For the compound `COc1ccc(C(=O)C(CN(C)C)CN(C)C)cc1`, the T/C (dose: 12.5 mg/kg/injection, schedule: Q04DX004 (sc), vehicle: saline) is 100 % of control and the T/C (dose: 25.0 mg/kg/injection, schedule: Q04DX004 (sc), vehicle: saline) was 38 % of control.
As for `COc1cccc2c1C(=O)c1c(O)c3c(c(O)c1C2=O)C[C@@](O)(C(=O)COC(=O)c1cccnc1)C[C@@H]3OC1CC(N)C(O)C(C)O1` (stereo partly drawn), under “dose: 6.0 mg/kg/injection, schedule: Q04DX004 (sc), vehicle: saline”, the T/C was 44 % of control and 65 % of control.
For `CCCCn1cnc2c(=S)nc[nH]c21`, the T/C was 68 % of control under setting [1], 120 % of control under setting [2] and 150 % of control under setting [3].
For `CCCCCCC(=O)CC(SCC)c1ccccc1Cl` (stereo not drawn), the T/C by setting is: under setting [4], 94 % of control; under setting [5], 92 % of control; (dose: 1200.0 mg/kg/injection, schedule: Q04DX004 (sc), vehicle: saline with Tween-80) 99 % of control.
Turning to `Cc1cc(NS(=O)(=O)c2ccc(N=Nc3cc(N=Nc4ccc(S(=O)(=O)Nc5cc(C)nc(C)n5)cc4)c4c(NC(=O)C(Cl)Cl)cccc4c3OC(=O)C(Cl)Cl)cc2)nc(C)n1` (tested in a mixture with another compound), the T/C is, setting by setting: under setting [1], 204 % of control; under setting [6], 72 % of control.
In the case of `C[CH2][Sn]([CH2]C)([CH2]C(=O)OC)[CH2]C(=O)OC`, the T/C runs as follows: (dose: 12.5 mg/kg/injection, schedule: Q04DX004 (sc), vehicle: saline with Tween-80) 79 % of control; (dose: 25.0 mg/kg/injection, schedule: Q04DX004 (sc), vehicle: saline with Tween-80) 83 % of control; (dose: 50.0 mg/kg/injection, schedule: Q04DX004 (sc), vehicle: saline with Tween-80) 79 % of control.
For the compound `c1csc(C[N+]23CN4CN(CN(C4)C2)C3)c1`, the T/C reads like this: (dose: 100.0 mg/kg/injection, schedule: Q04DX004 (sc), vehicle: saline) 76 % of control; (dose: 200.0 mg/kg/injection, schedule: Q04DX004 (sc), vehicle: saline) 97 % of control; (dose: 400.0 mg/kg/injection, schedule: Q04DX004 (sc), vehicle: saline) 61 % of control.
Turning to `CCCC(=O)Nc1ncnc2c1ncn2C1OC2COP(=O)(O)OC2C1OC(=O)CCC` (stereo not drawn), the T/C by setting is: under setting [7], 106 % of control; (dose: 200.0 mg/kg/injection, schedule: Q01DX010 (sc), vehicle: saline) 18 % of control; (dose: 400.0 mg/kg/injection, schedule: Q01DX010 (sc), vehicle: saline) 80 % of control; (dose: 800.0 mg/kg/injection, schedule: Q01DX010 (sc), vehicle: saline) 44 % of control.
Consider `O=C(O[Si](Cc1ccccc1)(Cc1ccccc1)Cc1ccccc1)N(CCCl)CCCl`, for which the T/C (dose: 100.0 mg/kg/injection, schedule: Q04DX004 (sc), vehicle: saline with Tween-80) is 119 % of control and the T/C (dose: 200.0 mg/kg/injection, schedule: Q04DX004 (sc), vehicle: saline with Tween-80) was 121 % of control.
Regarding `CC(=O)Nc1ccc(O)c(O)c1`, the T/C runs as follows: under setting [4], 257 % of control; under setting [5], 56 % of control; (dose: 600.0 mg/kg/injection, schedule: Q04DX004 (sc), vehicle: saline with Tween-80) 231 % of control; (dose: 2400.0 mg/kg/injection, schedule: Q04DX004 (sc), vehicle: saline with Tween-80) 110 % of control.
Consider `O=c1n[n+]([O-])ccn1C1OC(CO)C(O)C1O` (stereo not drawn), for which the T/C is 31 % of control (dose: 250.0 mg/kg/injection, schedule: Q04DX004 (sc), vehicle: suspension in saline); 25 % of control (dose: 500.0 mg/kg/injection, schedule: Q04DX004 (sc), vehicle: suspension in saline); 27 % of control (dose: 1000.0 mg/kg/injection, schedule: Q04DX004 (sc), vehicle: suspension in saline).
In the case of `Cc1cc(NCCN(C(C)C)C(C)C)nc(/N=C(\N)Nc2ccc(Cl)c(C(F)(F)F)c2)n1`, the T/C is, setting by setting: (dose: 20.0 mg/kg/injection, schedule: Q04DX004 (sc), vehicle: Klucel (hydroxypropylcellulose) (HPC)) 62 % of control; (dose: 40.0 mg/kg/injection, schedule: Q04DX004 (sc), vehicle: Klucel (hydroxypropylcellulose) (HPC)) 51 % of control; (dose: 80.0 mg/kg/injection, schedule: Q04DX004 (sc), vehicle: Klucel (hydroxypropylcellulose) (HPC)) 78 % of control; (dose: 160.0 mg/kg/injection, schedule: Q04DX004 (sc), vehicle: Klucel (hydroxypropylcellulose) (HPC)) 62 % of control.
For `CCN(CC)CCCC(C)Nc1c2ccc(Cl)cc2nc2ccc(OC)cc12` (stereo not drawn), the T/C reads like this: (dose: 50.0 mg/kg/injection, schedule: Q01DX010 (sc), vehicle: saline with Tween-80) 75 % of control; (dose: 100.0 mg/kg/injection, schedule: Q01DX010 (sc), vehicle: saline with Tween-80) 91 % of control; under setting [8], 38 % of control.
`CCCCCCCCCCS(=O)CC(CO)NC(=O)/C=C/c1c(C)[nH]c(=O)[nH]c1=O` (stereo not drawn): the T/C is 90 % of control (dose: 9.38 mg/kg/injection, schedule: Q04DX004 (sc), vehicle: distilled water + Tween-80); 100 % of control (dose: 18.75 mg/kg/injection, schedule: Q04DX004 (sc), vehicle: distilled water + Tween-80); 80 % of control (dose: 37.5 mg/kg/injection, schedule: Q04DX004 (sc), vehicle: distilled water + Tween-80).
On to `O=S(=O)(N=N/C=C1\C=CC=CN1O)c1cccs1`, for which the T/C under setting [4] was 75 % of control.
With `CCN(CC)CC[n+]1ccc2c(C)c3[nH]c4ccc(O)cc4c3c(C)c2c1`, the T/C by setting is: (dose: 12.5 mg/kg/injection, schedule: Q04DX004 (sc), vehicle: suspension in saline) 56 % of control; (dose: 25.0 mg/kg/injection, schedule: Q04DX004 (sc), vehicle: suspension in saline) 24 % of control.
With `CN(CO)c1nc(N(C)CO)nc(N(C)CO)n1`, the T/C reads like this: (dose: 25.0 mg/kg/injection, schedule: Q01DX010 (sc), vehicle: saline) 65 % of control and 81 % of control; under setting [7], 17 % of control.
With `C(COCCOCC1CO1)OCCOCC1CO1` (stereo not drawn), the T/C by setting is: (dose: 150.0 mg/kg/injection, schedule: Q04DX004 (sc), vehicle: saline) 63 % of control; (dose: 300.0 mg/kg/injection, schedule: Q04DX004 (sc), vehicle: saline) 55 % of control; (dose: 600.0 mg/kg/injection, schedule: Q04DX004 (sc), vehicle: saline) 43 % of control.
As to `CC(=O)C1(O)Cc2c(O)c3c(c(O)c2C(OC2CC(N)C(O)C(C)O2)C1)C(=O)c1ccccc1C3=O` (stereo not drawn), the T/C (dose: 1.0 mg/kg/injection, schedule: Q04DX004 (sc), vehicle: water) was 67 % of control.
For `[N-]=[N+]=CC(=O)CCC(N)C(=O)O` (stereo not drawn), the T/C (dose: 0.1 mg/kg/injection, schedule: Q01DX010 (sc), vehicle: saline) is 73 % of control and the T/C (dose: 0.2 mg/kg/injection, schedule: Q01DX010 (sc), vehicle: saline) is 43 % of control.
For the compound `O=c1[nH]cnc2[nH]ncc12`, the T/C was 33 % of control under setting [1], 31 % of control under setting [2], 21 % of control under setting [3] and 31 % of control under setting [6].
Consider `O=c1[nH]cnc2c1ccn2C1OC(CO)C(O)C1O` (stereo not drawn), for which the T/C is 48 % of control (dose: 5.0 mg/kg/injection, schedule: Q04DX004 (sc), vehicle: saline); 61 % of control (dose: 10.0 mg/kg/injection, schedule: Q04DX004 (sc), vehicle: saline); 69 % of control (dose: 20.0 mg/kg/injection, schedule: Q04DX004 (sc), vehicle: saline); 97 % of control (dose: 40.0 mg/kg/injection, schedule: Q04DX004 (sc), vehicle: saline).
As for `O=c1[nH]c(=O)n(C2CC(O)C(CO)O2)cc1I` (stereo not drawn), under setting [8], the T/C is 91 % of control.
As for `CC(C)[C@](O)(C(=O)OCC1=CC[N+]2([O-])CC[C@@H](O)[C@@H]12)[C@H](C)O` (stereo partly drawn), the T/C was 38 % of control (dose: 100.0 mg/kg/injection, schedule: Q01DX010 (sc), vehicle: water); 48 % of control (dose: 200.0 mg/kg/injection, schedule: Q01DX010 (sc), vehicle: water); 36 % of control (dose: 400.0 mg/kg/injection, schedule: Q01DX010 (sc), vehicle: water); 44 % of control (dose: 800.0 mg/kg/injection, schedule: Q01DX010 (sc), vehicle: water).
For the compound `Cc1ccc(C(=O)[O][Hg][CH2]C2COC([CH2][Hg][O]C(=O)c3ccc(C)cc3)CO2)cc1` (stereo not drawn), the T/C runs as follows: (dose: 150.0 mg/kg/injection, schedule: Q04DX004 (sc), vehicle: Klucel (hydroxypropylcellulose) (HPC)) 87 % of control; (dose: 300.0 mg/kg/injection, schedule: Q04DX004 (sc), vehicle: Klucel (hydroxypropylcellulose) (HPC)) 51 % of control; (dose: 600.0 mg/kg/injection, schedule: Q04DX004 (sc), vehicle: Klucel (hydroxypropylcellulose) (HPC)) 47 % of control; (dose: 1200.0 mg/kg/injection, schedule: Q04DX004 (sc), vehicle: Klucel (hydroxypropylcellulose) (HPC)) 42 % of control.

These data come from PubChem BioAssay AID206 (DTP/NCI, 2004).
